What was measured:
L-type calcium channel = L-type calcium channel activity well-plate assay (IMR-32 cells, Ca-4 dye, FlexStation); type: cell-based, human
Method: Cell Culture: IMR-32 (human neuroblastoma) cells were obtained from The American Type Culture Collection. The cells were maintained in MEM supplemented with 10% fetal bovine serum, 2 mM of L-glutamine, 100 IU/ml of penicillin, 50 μg/ml of streptomycin, 1% of sodium pyruvate, 1% of sodium bicarbonate and 1% of non-essential amino acid. […] Culture medium was changed every two days and cells were recultivated when they reached 70-80% confluent.
Assay: IMR-32 cells were seeded on a Microtest 96-well Assay Plate (BD FALCON™) at a density of 200,000 cells/well in 200 μl culture medium for overnight. The culture medium was removed, and replaced by 120 μl Ca-4 dye (MDS Analytical Technologies, Sunnyvale, Calif.) in HBSS (1× Hank's Balanced Salt solution plus 20 mM HEPES, pH 7.4) containing 2 mM probenecid. Cells were then incubated for 1 hour at 37° in incubator. Testing compounds were diluted from 5 μM-50 μM in HBSS, and 40 μl were added in cells before assay. […] The inhibition of L-type calcium channel activity by compounds was then calculated.

hERG potassium channel = hERG potassium channel (Homo sapiens, UniProt Q12809); assay: hERG screening assay (PatchXpress patch clamp, CHO cells)
Sequence of hERG potassium channel (Q12809 whole entry): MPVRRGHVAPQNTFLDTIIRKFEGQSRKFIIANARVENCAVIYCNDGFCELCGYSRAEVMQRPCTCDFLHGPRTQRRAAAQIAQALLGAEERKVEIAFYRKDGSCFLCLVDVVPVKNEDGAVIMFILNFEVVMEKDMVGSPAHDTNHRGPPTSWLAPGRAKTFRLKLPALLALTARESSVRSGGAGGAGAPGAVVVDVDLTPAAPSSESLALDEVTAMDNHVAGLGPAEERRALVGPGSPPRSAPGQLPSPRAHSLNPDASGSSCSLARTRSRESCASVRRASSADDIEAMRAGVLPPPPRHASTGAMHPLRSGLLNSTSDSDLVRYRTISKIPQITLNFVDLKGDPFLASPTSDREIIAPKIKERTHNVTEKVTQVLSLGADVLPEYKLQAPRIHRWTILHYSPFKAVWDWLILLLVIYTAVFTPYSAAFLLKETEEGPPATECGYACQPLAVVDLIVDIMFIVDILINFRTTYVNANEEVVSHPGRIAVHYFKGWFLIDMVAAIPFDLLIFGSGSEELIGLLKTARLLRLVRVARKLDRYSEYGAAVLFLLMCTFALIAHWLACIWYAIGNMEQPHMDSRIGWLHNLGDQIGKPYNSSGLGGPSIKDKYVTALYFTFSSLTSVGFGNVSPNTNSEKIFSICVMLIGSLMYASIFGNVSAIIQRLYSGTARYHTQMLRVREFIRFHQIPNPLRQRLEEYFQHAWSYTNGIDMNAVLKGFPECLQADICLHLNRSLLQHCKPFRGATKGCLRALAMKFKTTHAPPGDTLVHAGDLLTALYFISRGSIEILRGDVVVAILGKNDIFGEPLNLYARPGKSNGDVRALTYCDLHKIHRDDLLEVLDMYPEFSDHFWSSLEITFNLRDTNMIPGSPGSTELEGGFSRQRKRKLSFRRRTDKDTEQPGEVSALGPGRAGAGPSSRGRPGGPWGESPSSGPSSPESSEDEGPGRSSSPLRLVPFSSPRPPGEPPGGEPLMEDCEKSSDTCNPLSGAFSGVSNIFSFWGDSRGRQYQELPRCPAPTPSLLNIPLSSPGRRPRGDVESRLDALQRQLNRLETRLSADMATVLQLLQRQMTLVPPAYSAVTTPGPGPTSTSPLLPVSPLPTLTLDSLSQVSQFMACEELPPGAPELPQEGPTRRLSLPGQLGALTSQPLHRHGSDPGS
Method: Compounds were screened to test their activity in blocking the hERG potassium channel. The hERG channel is heterologously expressed in a CHO (Chinese Hamster Ovary) cell line. Cells are maintained with standard tissue culture procedures and stable channel expression is maintained with 500 μg/ml G418 in the culture medium. Cells are harvested for testing on the PatchXpress automated patch clamp with Acctumax (Innovative Cell Technologies, San Diego, Calif.) to isolate single cells.
The following solutions are used for electrophysiological recordings. The external solution contains: 2 mM CaCl2; 2 mM MgCl2; 4 mM KCl; 150 mM NaCl; 10 mM Glucose; 10 mM HEPES (pH 7.4 with 1M NaOH, osmolarity).
hERG channels are activated when the voltage is stepped to +20 mV from the −80 mV holding potential (see FIG. 3). During a 5 second step at +20 mV, the channels activate and then largely inactivate, so the currents are relatively small. Upon returning to −50 mV from +20 mV, hERG currents transiently become much larger as inactivation is rapidly removed and then the channel closes. The first step to −50 mV for 300 ms is used as a baseline for measuring the peak amplitude during the step to −50 mV after channel activation. The peak current at −50 mV is measured both under control conditions and after addition of compound.
All compounds are prepared as 10 mM DMSO stocks in glass vials. Stock solutions are mixed by vigorous vortexing and sonication for about 2 minutes at room temperature. For testing, compounds are diluted in glass vials using an intermediate dilution step in pure DMSO and then further diluted to working concentrations in external solution. Dilutions are prepared no longer than 20 minutes before use.
After achieving the whole-cell configuration, cells are monitored for 90 seconds to assess stability and washed with external solution for 66 seconds. The voltage protocol described above is then applied to the cells every 12 seconds and throughout the whole procedure. Only cells with stable recording parameters and meeting specified health criteria are allowed to enter the compound addition procedure.
External solution containing 0.1% DMSO (vehicle) is applied to the cells first to establish the control peak current amplitude. After allowing the current to stabilize for 3 to 5 minutes, 1 μM and then 10 μM test compounds are applied. Each compound concentration is added 4 times and cells are kept in test solution until the effect of the compound reaches steady state or for a maximum of 12 minutes. […] Washout in the external solution compartment is performed until the recovery of the current reaches steady state. Data are analyzed using DataXpress, Clampfit (Molecular Devices, Inc., Sunnyvale) and Origin 7 (Originlab Corp.)

| Compound | CaL Plate Assay % blk (1 μM test cmpd) (L-type calcium channel) [%] | CaL Plate Assay % blk (10 μM test cmpd) (L-type calcium channel) [%] | hERG Patch Clamp hERG % blk (1 μM test cmpd) (hERG potassium channel) [%] | hERG Patch Clamp hERG % blk (10 μM test cmpd) (hERG potassium channel) [%] |
| --- | --- | --- | --- | --- |
| N#CC1=C(N)OC2=C(C(=O)CC(c3ccccc3)C2)C1c1ccsc1 (stereo not shown) [PT-102, 2-amino-5-oxo-7-phenyl-4-(thiophen-3-yl)-5,6,7,8-tetrahydro-4H-chromene-3-carbonitrile] | 6 | 51 | – | – |
| CCOC(=O)C1=C(C)NC(C)=C(C(=O)OCC)C1c1ccsc1 [PT-110, diethyl 2,6-dimethyl-4-(thiophen-3-yl)-1,4-dihydropyridine-3,5-dicarboxylate] | 86 | 88 | – | – |
| CC1=C(C(=O)NCCCCc2ccccc2)C(c2ccsc2)C2=C(CCCC2=O)N1 (stereo not shown) [PT-164, 2-methyl-5-oxo-N-(4-phenylbutyl)-4-(thiophen-3-yl)-1,4,5,6,7,8-hexahydroquinoline-3-carboxamide] | 20 | 77 | – | – |
| CCCC1=C(C(=O)OCC)C(c2ccsc2)C2=C(CC(c3ccco3)CC2=O)N1 (stereo not shown) [PT-150, ethyl 7-(furan-2-yl)-5-oxo-2-propyl-4-(thiophen-3-yl)-1,4,5,6,7,8-hexahydroquinoline-3-carboxylate] | 4 | 71 | – | – |
| CC1=C(C(=O)OCC(F)(F)F)C(c2cccc3ccccc23)n2nnnc2N1 (stereo not shown) [PT-014, 2,2,2-trifluoroethyl 5-methyl-7-(naphthalen-1-yl)-4,7-dihydrotetrazolo[1,5-a]pyrimidine-6-carboxylate] | 0 | 40 | – | – |
| CCOC(=O)C1=C(C)NC(C)=C(C(=O)OCC)C1c1ccc(CC)o1 [PT-121, diethyl 4-(5-ethylfuran-2-yl)-2,6-dimethyl-1,4-dihydropyridine-3,5-dicarboxylate] | 35 | 72 | – | – |
| CCOC(=O)C1=C(C)Nc2nnnn2C1c1cccc(Oc2ccccc2)c1 (stereo not shown) [PT-464, ethyl 5-methyl-7-(3-phenoxyphenyl)-4,7-dihydrotetrazolo[1,5-a]pyrimidine-6-carboxylate] | – | – | 11 | 55 |
| C=CCOC(=O)C1=C(C)Nc2nnnn2C1c1cccc2ccccc12 (stereo not shown) [PT-319, allyl 5-methyl-7-(naphthalen-1-yl)-4,7-dihydrotetrazolo[1,5-a]pyrimidine-6-carboxylate] | – | – | 10 | 41 |
| CC(=O)c1ccc(-c2ccccc2C2C(C(=O)OCc3ccccc3)=C(C)Nc3nnnn32)cc1 (stereo not shown) [PT-415, benzyl 7-(4′-acetylbiphenyl-2-yl)-5-methyl-4,7-dihydrotetrazolo[1,5-a]pyrimidine-6-carboxylate] | – | – | 10.5 | 38.5 |
| CCOC(=O)C1=C(CC)Nc2nnnn2C1c1cccc2ccccc12 (stereo not shown) [PT-010, ethyl 5-ethyl-7-(naphthalen-1-yl)-4,7-dihydrotetrazolo[1,5-a]pyrimidine-6-carboxylate] | – | – | 12.5 | 30 |
| CCOC(=O)C1=C(C)NC(C)=C(C(=O)OCC)C1c1csc2ccccc12 [PT-115, diethyl 4-(benzo[b]thiophen-3-yl)-2,6-dimethyl-1,4-dihydropyridine-3,5-dicarboxylate] | 52 | 65 | – | – |
| CC1=C(C(=O)OC(C)C)C(c2cccc3ccccc23)n2nnnc2N1 (stereo not shown) [PT-021, isopropyl 5-methyl-7-(naphthalen-1-yl)-4,7-dihydrotetrazolo[1,5-a]pyrimidine-6-carboxylate] | – | – | 13 | 43.5 |
| CCOC(=O)C1=C(C)Nc2nnnn2C1c1cc2ccccc2o1 (stereo not shown) [PT-019, ethyl 7-(benzofuran-2-yl)-5-methyl-4,7-dihydrotetrazolo[1,5-a]pyrimidine-6-carboxylate] | – | – | 10 | 26 |
| CC1=C(C(=O)OC(c2ccccc2)C2CC2)C(c2cccc3ccccc23)n2nnnc2N1 (stereo not shown) [PT-002, cyclopropyl(phenyl)methyl 5-methyl-7-(naphthalen-1-yl)-4,7-dihydrotetrazolo[1,5-a]pyrimidine-6-carboxylate] | – | – | 11.5 | 28 |
| COc1cc(Cl)ccc1COC(=O)C1=C(C)Nc2nnnn2C1c1c(Cl)cccc1Cl (stereo not shown) [PT-306, 4-chloro-2-methoxybenzyl 7-(2,6-dichlorophenyl)-5-methyl-4,7-dihydrotetrazolo[1,5-a]pyrimidine-6-carboxylate] | – | – | 10 | 48.5 |
| COc1ccc2ccccc2c1C1C(C(=O)OCc2ccccc2)=C(C)Nc2nnnn21 (stereo not shown) [PT-030, benzyl 7-(2-methoxynaphthalen-1-yl)-5-methyl-4,7-dihydrotetrazolo[1,5-a]pyrimidine-6-carboxylate] | – | – | 10.5 | 34.5 |
| CC1=C(C(=O)OCc2ccc(Cn3cccn3)cc2)C(c2cccc3ccccc23)n2nnnc2N1 (stereo not shown) [PT-279, 4-((1H-pyrazol-1-yl)methyl)benzyl 5-methyl-7-(naphthalen-1-yl)-4,7-dihydrotetrazolo[1,5-a]pyrimidine-6-carboxylate] | – | – | 12.5 | 45 |
| CCS(=O)(=O)N1CCN(c2cccc(OC)c2C2C(C(=O)OCc3ccccc3)=C(C)Nc3nnnn32)CC1 (stereo not shown) [PT-378, benzyl 7-(2-(4-(ethylsulfonyl)piperazin-1-yl)-6-methoxyphenyl)-5-methyl-4,7-dihydrotetrazolo[1,5-a]pyrimidine-6-carboxylate] | – | – | 10 | 41.5 |
| CCOC(=O)C1=C(C)Nc2nccn2C1c1ccc2ccccc2c1 (stereo not shown) [PT-086, ethyl 7-methyl-5-(naphthalen-2-yl)-5,8-dihydroimidazo[1,2-a]pyrimidine-6-carboxylate] | – | – | 13.5 | 57.5 |
| CC1=C(C(=O)OCc2ccccc2)C(c2ccccc2N2CCN(S(C)(=O)=O)CC2)n2nnnc2N1 (stereo not shown) [PT-339, benzyl 5-methyl-7-(2-(4-(methylsulfonyl)piperazin-1-yl)phenyl)-4,7-dihydrotetrazolo[1,5-a]pyrimidine-6-carboxylate] | – | – | 11.5 | 43.5 |
| CCOC(=O)C1=C(C)Nc2nnnn2C1c1sc2ccccc2c1C (stereo not shown) [PT-018, ethyl 5-methyl-7-(3-methylbenzo[b]thiophen-2-yl)-4,7-dihydrotetrazolo[1,5-a]pyrimidine-6-carboxylate] | – | – | 14.5 | 36.5 |
| CC1=C(C(=O)OCc2ccccc2)C(c2nccs2)n2nnnc2N1 (stereo not shown) [PT-364, benzyl 5-methyl-7-(thiazol-2-yl)-4,7-dihydrotetrazolo[1,5-a]pyrimidine-6-carboxylate] | – | – | 10 | 17.5 |
| CC1=C(C(=O)OCc2ccccc2)[C@@H](c2ccccc2-c2ccc(Cl)s2)n2nnnc2N1 [PT-237, (R)-benzyl 7-(2-(5-chlorothiophen-2-yl)phenyl)-5-methyl-4,7-dihydrotetrazolo[1,5-a]pyrimidine-6-carboxylate] | – | – | 11.5 | 22.5 |
| CC1=C(C(=O)OCc2ccccc2)C(c2c(Br)sc3ccccc23)n2nnnc2N1 (stereo not shown) [PT-386, benzyl 7-(2-bromobenzo[b]thiophen-3-yl)-5-methyl-4,7-dihydrotetrazolo[1,5-a]pyrimidine-6-carboxylate] | – | – | 10 | 16.5 |
| CC1=C(C(=O)OCc2ccccc2)C(c2ccc3ccccc3c2)C2=C(CCCC2=O)N1 (stereo not shown) [PT-320, benzyl 2-methyl-4-(naphthalen-2-yl)-5-oxo-1,4,5,6,7,8-hexahydroquinoline-3-carboxylate] | – | – | 10 | 10 |
| CC1=C(C(=O)OCc2ccccc2)C(c2ccc3ccccc3c2)c2c(C)n[nH]c2N1 (stereo not shown) [PT-325, benzyl 3,6-dimethyl-4-(naphthalen-2-yl)-4,7-dihydro-1H-pyrazolo[3,4-b]pyridine-5-carboxylate] | – | – | 10 | 36 |
| CC1=C(C(=O)OCc2ccccc2)C(c2sccc2-c2ccc(F)cc2)n2nnnc2N1 (stereo not shown) [PT-397, benzyl 7-(3-(4-fluorophenyl)thiophen-2-yl)-5-methyl-4,7-dihydrotetrazolo[1,5-a]pyrimidine-6-carboxylate] | – | – | 10 | 25 |
| COc1cc(Cl)ccc1COC(=O)C1=C(C)NC2=C(C(=O)CCC2)C1c1c(Cl)cccc1Cl (stereo not shown) [PT-303, 4-chloro-2-methoxybenzyl 4-(2,6-dichlorophenyl)-2-methyl-5-oxo-1,4,5,6,7,8-hexahydroquinoline-3-carboxylate] | – | – | 12 | 30.5 |
| CCOC(=O)C1=C(C)Nc2nnnn2C1c1ccccc1-c1cccc(-c2nnn[nH]2)c1 (stereo not shown) [PT-493, ethyl 7-(3′-(1H-tetrazol-5-yl)biphenyl-2-yl)-5-methyl-4,7-dihydrotetrazolo[1,5-a]pyrimidine-6-carboxylate] | – | – | 10 | 10 |

From patent US20090181986A1, “SUBSTITUTED HETEROCYCLIC COMPOUNDS” (priority 2007, published 2009)
